Measured values reported in PMC5118696, “Identification of inhibitors that dually target the new permeability pathway and dihydroorotate dehydrogenase in the blood stage of Plasmodium falciparum” (Scientific Reports, 2016).
Like-named read-outs stand apart in the source and are kept apart here.

Tests used:
[1] = system: Hyp1-NLuc Plasmodium falciparum-infected erythrocytes (new permeability pathway, NPP); experiment: microbe, parasite or virus in culture; settings: Erythrocyte, 0.33 h, read-out: % of control remaining
[2] = system: Hyp1-NLuc Plasmodium falciparum-infected erythrocytes (new permeability pathway, NPP); experiment: microbe, parasite or virus in culture; settings: Erythrocyte, 0.33 h, read-out: Mean RLU at 28 min (As % of DMSO control)

| Structure (SMILES) | activity at 2 µM [1] | activity at 2 µM [2] |
| --- | --- | --- |
| CCN(CC)CCn1c(=N)n(CC(O)c2ccc(Cl)c(Cl)c2)c2ccccc21 (stereo not shown) [MMV000248] | 98.3% | 97.6% |
| CCOc1ccc(Nc2c3ccccc3nc3ccccc23)cc1 [MMV000304] | 109% | 107% |
| Cc1ccc2nc(C)cc(Nc3cccc(C(F)(F)F)c3)c2c1 [MMV000326] | 118% | 110% |
| CCn1c2c(c(=N)c3c1CCC3)CCCC2 [MMV000340] | 104% | 105% |
| Oc1ccc(Br)cc1CN1CCN(Cc2cccc(F)c2)CC1 [MMV000356] | 98.9% | 101% |
| CC(C)(C)c1ccc2c(c1)CN(Cc1ccc(Cl)cc1)CO2 [MMV000442] | 113% | 109% |
| CCOc1ccc2c(c1)CN(Cc1ccc(Cl)cc1)CO2 [MMV000443] | 94.2% | 99.2% |
| CCCCCn1c(=N)n(CC(O)COc2cccc(C)c2)c2ccccc21 (stereo not shown) [MMV000444] | 99.2% | 95.8% |
| CCCCCCn1c(=N)n(CC(O)COc2cccc(C)c2)c2ccccc21 (stereo not shown) [MMV000445] | 93.8% | 87.2% |
| CN(C)CCCNc1c2ccccc2nc2ccccc12 [MMV000448] | 102% | 102% |
| CCOc1cc2c(cc1OCC)C(c1cc(Cl)ccc1O)NCC2 (stereo not shown) [MMV000478] | 95.3% | 104% |
| CCOc1cc2c(cc1OCC)C(c1cc(Cl)c(O)c(OCC)c1)NCC2 (stereo not shown) [MMV000481] | 114% | 112% |
| CCOc1cc2c(cc1OCC)C(c1cc(C)c(O)c(C)c1)NCC2 (stereo not shown) [MMV000483] | 102% | 103% |
| CCN(CC)c1cc(C)c2cc(NC(=O)c3cccc(OC)c3)ccc2n1 [MMV000498] | 118% | 107% |
| CCCN(CCC)CCCNC(=O)c1cc2c(-c3ccc(OC)c(OC)c3)nn(C)c2s1 [MMV000561] | 106% | 107% |
| COc1ccc(C2Sc3ccccc3N=C3C2=C(O)c2ccccc23)cc1 (stereo not shown) [MMV000563] | 106% | 101% |
| CCc1ccc(Nc2cc(C)c3ccc(O)cc3n2)cc1 [MMV000570] | 107% | 106% |
| COc1ccc(-c2cc(=O)oc3c4c(ccc23)OCN(Cc2ccc(F)cc2)C4)cc1 [MMV000604] | 106% | 104% |
| COc1ccc(C(O)(CCC(C)C)C(CN2CCOCC2)c2ccc(Cl)cc2)cc1 (stereo not shown) [MMV000617] | 131% | 116% |
| CCCCC(O)(c1ccc(Cl)cc1)C(CN1CCOCC1)c1ccc(Cl)cc1 (stereo not shown) [MMV000619] | 114% | 108% |
| CC(O)(c1ccc(Cl)cc1)C(CN1CCCCC1)c1ccccc1 (stereo not shown) [MMV000620] | 114% | 100% |
| CCCCCCC(O)(c1ccc(F)cc1)C(CN1CCOCC1)c1ccccc1 (stereo not shown) [MMV000621] | 117% | 106% |
| CC1CCCCN1CCCNC(=O)c1ccc2c(c1)sc1nc(-c3ccc(F)cc3)cn12 (stereo not shown) [MMV000634] | 67.5% | 94.7% |
| COc1ccc(NC(=O)C2c3ccccc3C(=O)N(CC(C)C)C2c2cccs2)cc1Cl (stereo not shown) [MMV000642] | 94% | 94.6% |

| Structure (SMILES) | activity at 2 µM [1] | activity at 2 µM [2] |
| --- | --- | --- |
| COc1ccccc1CNC(=O)C1c2ccccc2C(=O)N(CC(C)C)C1c1cccs1 (stereo not shown) [MMV000648] | 105% | 108% |
| CCOc1ccccc1CNC(=O)C1c2ccccc2C(=O)N(CC(C)C)C1c1cccs1 (stereo not shown) [MMV000653] | 119% | 105% |
| COc1ccc(NC(=O)C2c3ccccc3C(=O)N(CC(C)C)C2c2cccs2)cc1 (stereo not shown) [MMV000662] | 85.7% | 85.9% |
| Cc1ccc(C2CC(C(F)(F)F)n3nc(C(=O)N4CCN(C(c5ccccc5)c5ccccc5)CC4)cc3N2)cc1 (stereo not shown) [MMV000699] | 100% | 101% |
| CCOC(=O)c1cnc2ccc(OC)cc2c1Nc1ccc(N2CCN(C)CC2)cc1 [MMV000704] | 94.6% | 106% |
| Cc1ccnc(NC(c2cccc(OCc3ccccc3)c2)c2ccc3cccnc3c2O)c1 (stereo not shown) [MMV000720] | 108% | 102% |
| Oc1ccc(-c2nc(-c3ccc4oc5ccc(-c6[nH]c(-c7ccc(O)cc7)nc6-c6ccccc6)cc5c4c3)c(-c3ccccc3)[nH]2)cc1 [MMV000753] | 89.5% | 88.1% |
| Oc1c(CN2CCN(c3ccccc3F)CC2)cc(Br)c2cccnc12 [MMV000760] | 114% | 112% |
| CCCOCc1cc(CN2CCN(c3cccc(Cl)c3)CC2)c(O)c2ncccc12 [MMV000787] | 111% | 101% |
| CC(C)OCc1cc(CN2CCN(c3cccc(Cl)c3)CC2)c(O)c2ncccc12 [MMV000788] | 107% | 109% |
| OC(CNCc1ccccc1)Cn1c2ccccc2c2ccccc21 (stereo not shown) [MMV000839] | 110% | 107% |
| OC(CNC1CCCC1)Cn1c2ccccc2c2ccccc21 (stereo not shown) [MMV000848] | 110% | 112% |
| Cc1ccc(NC(=O)Nc2cccc(Cl)c2)cc1F [MMV000911] | 114% | 115% |
| COc1ccc2c(c1OC)C(=O)N1c3ccccc3N=C(c3ccc(C)cc3)CC21 (stereo not shown) [MMV000917] | 94.9% | 90.9% |
| COc1ccc(Nc2nc(NCc3ccccc3)c3ccccc3n2)cc1 [MMV000963] | 106% | 103% |
| O=C1CC(O)(C(F)(F)C(F)(F)F)Oc2ccccc21 (stereo not shown) [MMV000972] | 82.2% | 90.2% |
| CN1CCN(c2nc(Nc3ccc(O)cc3)nc3ccccc23)CC1 [MMV000986] | 101% | 102% |
| Cc1ccc(Nc2nc(NCCO)c3ccccc3n2)cc1C [MMV001038] | 102% | 102% |
| OCCNc1nc(Nc2ccc(Cl)c(Cl)c2)nc2ccccc12 [MMV001041] | 95.1% | 97.4% |
| CC(C)c1ccc(CNCC(O)c2ccccc2)cc1 (stereo not shown) [MMV001049] | 116% | 113% |
| CCOc1cccc2sc(N(Cc3cccnc3)C(=O)C3CCCCC3)nc12 [MMV001230] | 113% | 103% |
| COc1ccc2sc(N(Cc3cccnc3)C(=O)c3ccc(C#N)cc3)nc2c1 [MMV001239] | 64.1% | 92.1% |
| COc1ccc(C)c2sc(N(Cc3cccnc3)C(=O)c3ccc(C#N)cc3)nc12 [MMV001241] | 100% | 101% |
| CSc1ccccc1C(=O)Nc1nc(-c2ccccn2)cs1 [MMV001246] | 106% | 112% |

| Structure (SMILES) | activity at 2 µM [1] | activity at 2 µM [2] |
| --- | --- | --- |
| CCCCc1ccc(NS(=O)(=O)c2cc3c4c(c2)CCN4C(=O)CC3)cc1 [MMV001255] | 89.2% | 100% |
| O=C(Nc1ccc(Br)cc1)Nc1cccc(Cl)c1 [MMV001318] | 107% | 105% |
| CC1CC(C)CN(C(=O)c2ccc(Cl)cc2Cl)C1 (stereo not shown) [MMV001344] | 107% | 106% |
| CCN(CC)CCNc1ccnc2cc(Cl)ccc12 [MMV006087] | 105% | 107% |
| c1ccc(CNc2nc(Nc3ccccc3)nc3ccccc23)cc1 [MMV006169] | 114% | 102% |
| CN1CCN(c2ccc(Nc3c4ccccc4nc4ccccc34)cc2)CC1 [MMV006172] | 96.4% | 97.7% |
| O=C(NCc1ccco1)C1CCN(S(=O)(=O)c2ccc(Cl)cc2)CC1 [MMV006188] | 112% | 106% |
| Cc1cc(NCCN2CCCCC2)c2ccc3ccccc3c2n1 [MMV006203] | 99.9% | 103% |
| CCOC(=O)c1cnc2c(C)cccc2c1Nc1ccc(C(C)=O)cc1 [MMV006250] | 103% | 95.8% |
| CCc1c(C)c(=N)c2ccccc2n1C [MMV006278] | 99.6% | 98.8% |
| CCN(CC)CCNc1ccnc2cc3ccccc3cc12 [MMV006303] | 107% | 109% |
| CN(C)c1ccc(C=Cc2nc(=O)c3ccccc3o2)cc1 [MMV006309] | 19% | 36.4% |
| Cc1cc(Nc2cccc(F)c2)nc(NCc2ccccc2)n1 [MMV006319] | 104% | 102% |
| O=C1c2ccccc2C2=Nc3ccccc3SC(c3cccc(F)c3)C12 (stereo not shown) [MMV006389] | 102% | 98.3% |
| COc1cc(OC)c(N(C)C(=O)c2cc3c(s2)-c2ccccc2S(=O)(=O)C3)cc1Cl [MMV006427] | 104% | 105% |
| Cc1cc(NC(=O)C2c3ccccc3C(=O)N(CC(C)C)C2c2cccs2)no1 (stereo not shown) [MMV006429] | 98.1% | 99.6% |
| CCCN(CCC)CC(O)COc1ccccc1C(=O)Nc1ccccc1 (stereo not shown) [MMV006455] | 104% | 105% |
| CCOC(=O)c1ccc2nc(-c3ccccc3)cc(O)c2c1 [MMV006457] | 93.7% | 104% |
| c1ccc2c(NCCc3c[nH]c4ccccc34)c3ccccc3nc2c1 [MMV006513] | 106% | 96.2% |
| CCOc1ccc2nc(C)cc(Nc3ccc(Br)cc3)c2c1 [MMV006522] | 104% | 102% |
| CCN(CC)CCNc1ncnc2c1[nH]c1ccc(Br)cc12 [MMV006545] | 110% | 120% |
| Cc1cc(C)c2c(c1)OCN(Cc1ccccc1Cl)C2 [MMV006558] | 108% | 108% |
| Clc1ccc2[nH]c3c(NCCCN4CCOCC4)ncnc3c2c1 [MMV006587] | 102% | 116% |
